# PubChem BioAssay AID328 (DTP/NCI, 2004)
# Toxic doses and inconclusive results are not listed.
# System: BDF1 mice, P388 leukemia ip, median survival T/C
# Test: NCI In Vivo Anticancer Drug Screen. Data for tumor model P388 Leukemia (intraperitoneal) in B6D2F1 (BDF1) mice
# Conditions: endpoint: median survival time, higher = longer survival
# In short: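 Steps: implant the tumour, treat one group with compound and another with vehicle, record survival, then divide treated by control.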
# [1] = dose: 25.0 mg/kg/injection, schedule: Q01DX009 (ip), vehicle: saline with Tween-80
# [2] = dose: 50.0 mg/kg/injection, schedule: Q01DX009 (ip), vehicle: saline with Tween-80
# [3] = dose: 100.0 mg/kg/injection, schedule: Q01DX009 (ip), vehicle: saline with Tween-80
# [4] = dose: 100.0 mg/kg/injection, schedule: Q04DX003 (ip), vehicle: saline with Tween-80
# [5] = dose: 200.0 mg/kg/injection, schedule: Q04DX003 (ip), vehicle: saline with Tween-80
# [6] = dose: 400.0 mg/kg/injection, schedule: Q04DX003 (ip), vehicle: saline with Tween-80
compound,measurement,setting,value
COc1cc(NC(N)=O)cc(OC)c1OC,T/C,"dose: 18.75 mg/kg/injection, schedule: Q04DX003 (ip), vehicle: saline sonified",100 % of control
same,T/C,"dose: 37.5 mg/kg/injection, schedule: Q04DX003 (ip), vehicle: saline sonified",86 % of control
same,T/C,"dose: 75.0 mg/kg/injection, schedule: Q04DX003 (ip), vehicle: saline sonified",100 % of control
Cc1c2cnccc2c(C)c2c1c1ccccc1n2CC1CO1 (centres undefined),T/C,"dose: 9.37 mg/kg/injection, schedule: Q01DX009 (ip), vehicle: Klucel (hydroxypropylcellulose) (HPC)",150 % of control
same,T/C,"dose: 11.0 mg/kg/injection, schedule: Q01DX009 (ip), vehicle: saline with Tween-80",168 % of control
same,T/C,"dose: 16.5 mg/kg/injection, schedule: Q01DX009 (ip), vehicle: saline with Tween-80",176 % of control
same,T/C,[1],106 % of control
same,T/C,"dose: 37.5 mg/kg/injection, schedule: Q01DX009 (ip), vehicle: saline with Tween-80",95 % of control
ClCCOCCOc1ccc(C2CCCCC2)cc1,T/C,"dose: 100.0 mg/kg/injection, schedule: Q04DX003 (ip), vehicle: saline",100 % of control
same,T/C,"dose: 200.0 mg/kg/injection, schedule: Q04DX003 (ip), vehicle: saline",100 % of control
same,T/C,"dose: 400.0 mg/kg/injection, schedule: Q04DX003 (ip), vehicle: saline",100 % of control
Cc1cc(C)c[n+](C2=C([O-])C(=O)C([n+]3cc(C)cc(C)c3)=C([O-])C2=O)c1,T/C,[2],97 % of control
same,T/C,[3],97 % of control
same,T/C,"dose: 200.0 mg/kg/injection, schedule: Q01DX009 (ip), vehicle: saline with Tween-80",95 % of control
CCOC(=O)C1Cc2ccccc2OC1=O (centres undefined),T/C,"dose: 50.0 mg/kg/injection, schedule: Q01DX005 (ip), vehicle: saline with Tween-80",105 % of control
same,T/C,"dose: 100.0 mg/kg/injection, schedule: Q01DX005 (ip), vehicle: saline with Tween-80",100 % of control
same,T/C,"dose: 200.0 mg/kg/injection, schedule: Q01DX005 (ip), vehicle: saline with Tween-80",91 % of control
COC(=O)c1cc(-c2ccccc2)[nH]c1-c1ccccc1,T/C,"dose: 50.0 mg/kg/injection, schedule: Q01DX009 (ip), vehicle: saline",92 % of control
CCN(CC)P1(=S)OCC(C)O1 (centres undefined),T/C,[4],92 % of control
same,T/C,[5],100 % of control
same,T/C,[6],111 % of control
Nc1ncccc1C1CCCS1 (centres undefined),T/C,"dose: 50.0 mg/kg/injection, schedule: Q04DX002 (ip), vehicle: saline with Tween-80",104 % of control
same,T/C,"dose: 100.0 mg/kg/injection, schedule: Q04DX002 (ip), vehicle: saline with Tween-80",98 % of control
same,T/C,"dose: 200.0 mg/kg/injection, schedule: Q04DX002 (ip), vehicle: saline with Tween-80",91 % of control
COc1cc2cc(c1Cl)N(C)C(=O)CC(OC(=O)C(C)C)C1(C)OC1C(C)C1CC(O)(NC(=O)O1)C(OC)/C=C/C=C(/C)C2OC(C)=O (centres undefined),T/C,"dose: 1.6 micrograms/kg/injection, schedule: Q01DX009 (ip), vehicle: saline + alcohol",162 % of control
same,T/C,"dose: 3.1 micrograms/kg/injection, schedule: Q01DX009 (ip), vehicle: saline + alcohol",150 % of control
same,T/C,"dose: 6.2 micrograms/kg/injection, schedule: Q01DX009 (ip), vehicle: saline + alcohol",166 % of control
same,T/C,"dose: 12.5 micrograms/kg/injection, schedule: Q01DX009 (ip), vehicle: saline + alcohol",179 % of control
same,T/C,"dose: 25.0 micrograms/kg/injection, schedule: Q01DX009 (ip), vehicle: saline + alcohol",170 % of control
O=[N+]([O-])/C=C/c1cccc(F)c1,T/C,"dose: 12.5 mg/kg/injection, schedule: Q04DX003 (ip), vehicle: saline with Tween-80",107 % of control
same,T/C,"dose: 25.0 mg/kg/injection, schedule: Q04DX003 (ip), vehicle: saline with Tween-80",98 % of control
same,T/C,"dose: 50.0 mg/kg/injection, schedule: Q04DX003 (ip), vehicle: saline with Tween-80",93 % of control
same,T/C,[4],87 % of control
C=C(C)S(=O)(=O)c1ccc(C)cc1,T/C,[4],108 % of control
same,T/C,[5],91 % of control
same,T/C,[6],88 % of control
O=[N+]([O-])c1ccc(NS(=O)(=O)c2ccc(Cl)c(Cl)c2Cl)c([N+](=O)[O-])c1,T/C,[1],96 % of control
same,T/C,[2],105 % of control
same,T/C,[3],102 % of control
